These results are taken from patent US20080076772A1, “Anti-Inflammatory Agents” (Pharma Mar S.A. Sociedad Unipersonal, priority 2004, published 2008).

Each structure is given as a SMILES string. Like-named read-outs stand apart in the source and are kept apart here.

A word on the inhibition: it is the drop in the measured response relative to a control, in per cent.

Experiment [1] has as its system CCL2. Description: CCL2 production induced by exposure of monocytes to tumor cell supernatants. The experiment is classed as cell-based, human. The note with it: Homo sapiens, Monocyte; for inhibition at 0.0025 µM: 2.5 nM; for inhibition at 0.005 µM: 5 nM. The procedure:
We also tested five other ecteinascidin compounds (Table 2) for their capacity to inhibit the production of CCL2 by human monocytes in vitro. […] The extent of inhibition of ET637 Derivative A was even more pronouced compared to ET743. In Table 2 is shown that the production of CCL2, induced by exposure of monocytes to tumor cell supernatants, is inhibited up to 80% and 97% at 2.5 and 5 nM, respectively, in two different donors. In the same experiment ET743 inhibited between 30% and 70%.

A further experiment deals with IL-6. Description: IL-6 release in TAM (ELISA). The note with it: Homo sapiens, n=4. The experiment is classed as cell-based. From the text: Tumour-associated macrophages (TAM) and tumour cells were isolated from the ascitic fluid of patients with diagnosed ovarian adenocarcinoma, admitted to the Clinic of Obstetrics and Gynecology of the University of Milan-Bicocca, S Gerardo Hospital. Cells contained in the ascitic fluid were centrifuged and isolated by differential density gradients of Ficoll and Percoll, and plastic adherence as previously described (see Allavena, P., Peccatori, F., Maggioni, D., Erroi, A., Sironi, M., Colombo, N., Lissoni, A., Galazka, A., Meiers, W., Mangioni, C., et al. Intraperitoneal recombinant gamma-interferon in patients with recurrent ascitic ovarian carcinoma: modulation of cytotoxicity and cytokine production in tumour-associated effectors and of major histocompatibility antigen expression on tumour cells. Cancer Res, 50: 7318-7323, 1990). Purity of TAM and tumour cell preparations was usually>65±10% as defined by morphology and phenotype analysis. Cells were treated with ecteinascidin 743 at the indicated concentrations and cultured for 1-5 days, as specified in figure legends. […]
Supernatants of untreated cells or cells treated with ecteinascidin 743 or other anti-neoplastic agents were collected after 24 h culture and frozen. […] Determination of cytokines CCL2, TNF and IL-6 was measured by specific ELISA following the manufacturer's instructions. […]

A further experiment has as its system monocytes. Description: Apoptosis of monocytes (Annexin V / PI staining). The experiment is classed as cell-based, human. The note with it: monocytes exposed to drug. The protocol: Cells exposed to treatments were fixed with ethanol 70%, washed in PBS and stained with propidium iodide (PI) solution containing 10 ug/ml PI in PBS and 25 μl RNAse 10,000 units, overnight in the dark. PI incorporation was evaluated on at least 20,000 cells/sample using a FACS Calibur instrument (Becton Dickinson, Sunnyvale, Calif., USA), with a bandpass filter at 620 nm. Apoptosis was detected by staining with AnnexinV and PI. FACS analysis was performed using a bandpass filter 530 and 620 nm for green (AnnexinV) and red (PI) fluorescence respectively, in combination with a […] dichroic mirror.

Experiment [2] deals with CCL2. Description: CCL2 production by LPS-stimulated monocytes (ELISA). Format: cell-based, human. The protocol: Supernatants of untreated cells or cells treated with ecteinascidin 743 or other anti-neoplastic agents were collected after 24 h culture and frozen. Monocytes, macrophages and TAM were stimulated with 100 ng/ml LPS to induce maximal cytokine production. Determination of cytokines CCL2, TNF and IL-6 was measured by specific ELISA following the manufacturer's instructions.
Monocytes and in vitro differentiated macrophages were stimulated with LPS (100 ng/ml). After 1 h LPS stimulation they were treated with ecteinascidin 743. After 16 h incubation, cell supernatants were harvested and tested in ELISA. Under these treatment conditions cell viability was usually >85% for concentrations up to 5 nM. […] Mean inhibition at 5 nM, for monocytes, was 65% (range 50-80%, n=5) and was 50% (range 25-75%, n=5) for in vitro differentiated macrophages. Results are mean+/−SE of 3-5 experiments
Similar results were obtained when monocytes were stimulated with LPS (100 ng/ ml) and treated with ET743 and the other ecteinascidin compounds, although the overall inhibition was less marked compared with the previous experiment where the tumor supernantant was used as CCL2-inducing stimulus.
CCL2 and TNF production by LPS-stimulated monocytes treated with the indicated doses of the anti-tumor agents was also tested. Cell supernatants were harvested after 24 h-incubation and tested in ELISA. […] None of these compounds interfered with the production of TNF.
A major finding of our work is the inhibitory activity of ecteinascidin 743 on the production of inflammatory cytokines. Among various inflammatory cytokines produced by monocyte/macrophages we have tested IL-6, TNF and the chemokine CCL2. CCL2 is a chemokine attracting monocytes and other leukocyte subsets, and is produced both by monocyte/macrophages and several tumour cells. It has been described that ovarian adenocarcinoma cells produce huge amounts of CCL2 and that their levels correlate with the macrophage content of tumours. CCL2 is therefore one of the most important factors regulating monocyte/macrophages recruitment at the tumour site. […] Thus, lower levels of CCL2 by TAM and tumour cells are likely to reduce the number of macrophages recruited at the tumour site. In the above described in vitro experiments ecteinascidin 743 was present throughout the 16-h culture period. We also checked whether a shorter in vitro exposure to ecteinascidin 743 was sufficient to affect cytokine production. Monocytes exposed to ecteinascidin 743 were washed after 1 hour culture and replaced in fresh medium.

Another experiment has as its system CCL2 transcripts. Description: Real time-PCR of CCL2 transcripts in LPS-stimulated monocytes. Format: cell-based, human. An excerpt:
To verify whether the inhibitory effect of ecteinascidin 743 on cytokine production was at the transcriptional level, we analyzed mRNA of CCL2 and TNF from LPS-stimulated macrophages by real time-PCR of CCL2 and TNF transcripts in LPS-stimulated monocytes exposed to ecteinascidin 743.

The mark [3] stands for this setting: read-out: % inhibition of CCL2 production, Donor A.
[4] abbreviates: read-out: % inhibition of CCL2 production, Donor B.

As to `COc1cc2c(cc1O)CCN[C@]21CS[C@@H]2c3c(OC(C)=O)c(C)c4c(c3[C@H](COC1=O)N1[C@@H]2[C@H]2c3c(cc(C)c(OC)c3O)C[C@@H]([C@@H]1O)N2C)OCO4` [ecteinascidin 743], the inhibition at 0.0025 µM was 30% in the experiment on CCL2 [1] (setting [3]) and 60% with CCL2 [1] (setting [4]). Besides, the inhibition at 0.005 µM with CCL2 [1] (setting [3]) worked out at 70%; in the experiment with CCL2 [1] (setting [4]), 70%; in the experiment on IL-6 (5 nM) it was 35%; with CCL2 [2] (Homo sapiens, Monocyte, 5 nM, LPS 100 ng/ml, 16 h, n=5) it was 65%. This compound also yielded an inhibition at 0.01 µM with IL-6 (10 nM) of 47%. For the same compound, the “Annexin V staining of dying monocytes (apoptosis)” value with monocytes is recorded as “stained positive for Annexin V”. Moreover, the “inhibition of CCL2 production” value in the experiment on CCL2 [2] (monocytes washed after 1 hour culture with drug, fresh medium) was 57%; with CCL2 [2] (monocytes, 16 h-treatment) it was 69%. Also, in the experiment on CCL2 transcripts, the CCL2 transcripts result is “consistent reduction”.
